IC50 and fold induction data for 15 compounds are collected here from US20250296939A1, “BENZOTHIOPHENE COMPOUND” (Kyoto Pharmaceutical Industries, Ltd., priority 2022, published 2025).

The target in test [1] is GST-fused human Keap1 (amino acid residues: 325-642) protein (Homo sapiens (Human), UniProt Q14145). As to the kind of experiment: FP assay (in vitro): inhibition of binding between Nrf2 and Keap1 by fluorescence polarization. Conditions: 20 nM GST-fused human Keap1, 10 nM FITC-labeled Nrf2 peptide, 2 hr at room temperature. How it is done:
Experimental Example 1: FP Assay (In Vitro)
The inhibitory activity of test compounds on the binding between Nrf2 and Keap1 was determined by fluorescence polarization. A solution of 50 mM Tris-HCl pH.8.0 (NACALAI, REF: 06938-15), and 5 mM DTT (SIGMA-ALDRICH, REF: 646563-10X.5 mL) was used as a buffer solution. 8 μL of a buffer solution containing 40 nM GST-fused human Keap1 (amino acid residues: 325-642) protein (Protein tech, REF: Ag0779) was taken in a black 384-well plate (final concentration 20 nM), and 4 μL of the test compound solution prepared to each concentration in buffer solution was added thereto. A well containing a portion of the buffer solution without Keap1 was placed as a negative control. A well with no compound was used as a positive control. 40 nM of FITC-labeled Nrf2 peptide (FITC-X-LQLDEETGEFLPIQ (X=ε-Acp), Peptide Institute Inc.) was added thereto (10 nM final concentration). The wells were incubated at room temperature for 2 hr, and then fluorescence polarization was measured with a plate reader SPECTRAMAX Paradigm (Molecular devices) at excitation wavelength of 485 nm and fluorescence wavelength of 535 nm. The fluorescence polarization of the negative control was set to 100% inhibition and that of the positive control to 0% inhibition, and the inhibitory rate upon addition of the test compound was calculated using the following formula.
On the technique in general: Polarisation of emitted light reports the rotation of a fluorescent probe.

In test [2] the test system is NQO1 activity in Hepa1c1c7 cells. As to the kind of experiment: NAD(P)H: quinone oxidoreductase-1 (NQO1) enzyme induction assay (in vitro). Type of test: cell-based, mouse. Particulars: Mus musculus, Hepa-1c1c7, NQO1 activity upon addition of 400 nM of test compound, about 48 hr, ratio from the base without the compound. How it is done:
Experimental Example 2: NAD(P)H: Quinone Oxidoreductase-1 (NQO1) Enzyme Induction Assay (In Vitro)
The NQO1 assay was performed based on a previous report (Methods in Enzymology 2004; 382: 243-258). Hepa1c1c7 cells (mouse hepatocyte cell line, ATCC, cat. no. CRL-2026) were cultured in D-MEM medium containing 10% FBS and 1% penicillin/streptomycin (5% CO2, 37° C.), and seeded into 96-well plates (Corning REF. 353072) at 1×10^4 cells/well. A portion of the wells were prepared with medium only for background measurement without seeding cells. The next day, 400 nM of the test compound (0.004% of the final concentration in DMSO) dissolved in DMSO was added thereto, and the wells were incubated for about 48 hr. A well without adding the test compound was prepared for base activity assay in part.
Cell lysate (solution containing 0.8% digitonin, 2 mM EDTA), reaction solution (solution containing 25 mM Tris-HCl, 0.07% albumin, 0.01% Tween-20, 2 U/mL glucose-6-phosphate dehydrogenase, 5 μM flavin adenine dinucleotide, 1 μM glucose-6-phosphate, 30 μM nicotinamide adenine dinucleotide phosphate, 0.03% 3-(4,5-dimethyl-2-thiazolyl)-2,5-diphenyltetrazolium bromide (MTT), and 50 μM menadione), stop solution (solution containing 0.3 mM dicoumarol and 5 mM potassium dihydrogen phosphate, pH 7.4) were prepared. After the medium was removed, 50 μL of the cell lysate was added and incubated at 37° C. for 10 minutes, followed by shaking at room temperature for 10 minutes. 200 μL of reaction solution was added thereto, and allowed to stand for 5 minutes at room temperature. 50 μL of the stop solution was added thereto, and absorbance was measured at 610 nm on a SpectraMax PLUS384 (Molecular devices) or POWERSCAN HT (DS Pharma Biomedical). The test results were analyzed in Excel, and the NQO1 activity upon addition of 400 nM of test compound was calculated as a ratio from the base without the compound.
The results of each test compound in this test are shown in the following Table 2 (A: 5<NQO1 activity ratio, B: 3<NQO1 activity ratio 5, C: 1.5<NQO1 activity ratio 3).

Sequence of GST-fused human Keap1 (amino acid residues: 325-642) protein (Q14145 325-624 limits assumed): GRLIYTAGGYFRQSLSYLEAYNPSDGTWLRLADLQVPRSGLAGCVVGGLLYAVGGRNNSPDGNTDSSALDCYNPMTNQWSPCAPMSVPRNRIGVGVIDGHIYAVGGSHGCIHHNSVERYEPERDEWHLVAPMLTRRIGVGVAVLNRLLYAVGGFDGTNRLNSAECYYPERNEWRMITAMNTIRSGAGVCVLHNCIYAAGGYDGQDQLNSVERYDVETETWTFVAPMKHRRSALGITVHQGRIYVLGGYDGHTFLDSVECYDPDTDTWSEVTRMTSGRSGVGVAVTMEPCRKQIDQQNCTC

By IC50 is commonly meant the concentration that inhibits the measured activity by half. A low value points to greater potency. As a reminder, the fold induction is the signal under treatment as a multiple of the control signal. In test [1], `CC[C@@H]1CN(Cc2cc([C@@H](CC(=O)O)c3ccc4c(nnn4C)c3C)cc3ccsc23)Cc2nc(O)ccc2O1` [Example 2, (3R)-3-(1,4-Dimethyl-1H-benzotriazol-5-yl)-3-(7-{[(2R)-2-ethyl-7-hydroxy-2,3-dihydropyrido[2,3-f][1,4]oxazepin-4(5H)-yl]methyl}-1-benzothiophen-5-yl)propanoic acid] displayed an IC50 of 30 to 300 nM. For the same compound, the fold induction at 0.4 µM in test [2] is greater than 5.
On the same counts, the results for `Cc1c([C@@H](CC(=O)O)c2cc(CN3Cc4nc(O)ccc4OC4(CC4)C3)c3sccc3c2)ccc2c1nnn2C` [Example 3, (3S)-3-(1,4-Dimethyl-1H-benzotriazol-5-yl)-3-{7-[(7′-hydroxy-3′H-spiro[cyclopropane-1,2′-pyrido[2,3-f][1,4]oxazepin]-4′(5′H)-yl)methyl]-1-benzothiophen-5-yl}propanoic acid] are 10 to 30 nM and greater than 5.
For `Cc1c([C@H](CC(=O)O)c2cc(CN3Cc4nc(O)ccc4OC4(CC4)C3)c3sccc3c2)ccc2c1nnn2C` [Example 4, (3R)-3-(1,4-Dimethyl-1H-benzotriazol-5-yl)-3-{7-[(7′-hydroxy-3′H-spiro[cyclopropane-1,2′-pyrido[2,3-f][1,4]oxazepin]-4′ (5′H)-yl)methyl]-1-benzothiophen-5-yl}propanoic acid] the same measures were 10 to 30 nM and greater than 5.
For `Cc1c([C@@H](CC(=O)O)c2cc(CN3Cc4nc(O)ccc4O[C@H](C4CC4)C3)c3sccc3c2)ccc2c1nnn2C` [Example 6, (3S)-3-(7-{[(2R)-2-Cyclopropyl-7-hydroxy-2,3-dihydropyrido[2,3-f][1,4]oxazepin-4(5H)-yl]methyl}-1-benzothiophen-5-yl)-3-(1,4-dimethyl-1H-benzotriazol-5-yl)propanoic acid] the same measures were 10 to 30 nM and greater than 5.
For `Cc1c([C@@H](CC(=O)O)c2cc(CN3Cc4nc(O)ccc4O[C@@H](C4CC4)C3)c3sccc3c2)ccc2c1nnn2C` [Example 7, (3S)-3-(7-{[(2S)-2-Cyclopropyl-7-hydroxy-2,3-dihydropyrido[2,3-f][1,4]oxazepin-4(5H)-yl]methyl}-1-benzothiophen-5-yl)-3-(1,4-dimethyl-1H-benzotriazol-5-yl)propanoic acid], the half-maximal inhibitory concentration (IC50) in test [1] was in the range of 30 to 300 nM. Also, the fold induction at 0.4 µM in test [2] was greater than 5.
For `Cc1c([C@H](CC(=O)O)c2cc(CN3Cc4nc(O)ccc4O[C@@H](C4CC4)C3)c3sccc3c2)ccc2c1nnn2C` [Example 8, (3R)-3-(7-{[(2S)-2-Cyclopropyl-7-hydroxy-2,3-dihydropyrido[2,3-f][1,4]oxazepin-4(5H)-yl]methyl}-1-benzothiophen-5-yl)-3-(1,4-dimethyl-1H-benzotriazol-5-yl)propanoic acid] the same measures were 30 to 300 nM and 3 to 5.
For `Cc1c([C@@H](CC(=O)O)c2cc(CN3Cc4nc(O)ccc4O[C@H](C4CC4)C3)c3sccc3c2)cnc2c1nnn2C` [Example 9, (3S)-3-(7-{[(2R)-2-Cyclopropyl-7-hydroxy-2,3-dihydropyrido[2,3-f][1,4]oxazepin-4(5H)-yl]methyl}-1-benzothiophen-5-yl)-3-(3,7-dimethyl-3H-[1,2,3]triazolo[4,5-b]pyridin-6-yl)propanoic acid] the same measures were 30 to 300 nM and greater than 5.
On the same counts, the results for `Cc1c([C@H](CC(=O)O)c2cc(CN3Cc4nc(O)ccc4O[C@H](C4CC4)C3)c3sccc3c2)cnc2c1nnn2C` [Example 10, (3R)-3-(7-{[(2R)-2-Cyclopropyl-7-hydroxy-2,3-dihydropyrido[2,3-f][1,4]oxazepin-4(5H)-yl]methyl}-1-benzothiophen-5-yl)-3-(3,7-dimethyl-3H-[1,2,3]triazolo[4,5-b]pyridin-6-yl)propanoic acid] are 10 to 30 nM and greater than 5.
In test [1], `Cc1c([C@H](c2cc(CN3Cc4nc(O)ccc4O[C@H](C4CC4)C3)c3sccc3c2)C(C)(C)C(=O)O)ccc2c1nnn2C` [Example 14, (3S)-3-(7-{[(2R)-2-Cyclopropyl-7-hydroxy-2,3-dihydropyrido[2,3-f][1,4]oxazepin-4(5H)-yl]methyl}-1-benzothiophen-5-yl)-3-(1,4-dimethyl-1H-benzotriazol-5-yl)-2,2-dimethylpropanoic acid] showed a half-maximal inhibitory concentration (IC50) of no more than 10 nM. Also, in test [2], the fold induction at 0.4 µM was greater than 5.
For `Cc1c([C@@H](CC(=O)O)c2cc(CN3Cc4nc(O)ccc4O[C@H](C)C3)c3sccc3c2)ccc2c1nnn2C` [Example 15, (3S)-3-(1,4-Dimethyl-1H-benzotriazol-5-yl)-3-(7-{[(2R)-7-hydroxy-2-methyl-2,3-dihydropyrido[2,3-f][1,4]oxazepin-4(5H)-yl]methyl}-1-benzothiophen-5-yl)propanoic acid] the same measures were 10 to 30 nM and greater than 5.
The compound `Cc1c([C@H](CC(=O)O)c2cc(CN3Cc4nc(O)ccc4O[C@H](C)C3)c3sccc3c2)ccc2c1nnn2C` [Example 16, (3R)-3-(1,4-Dimethyl-1H-benzotriazol-5-yl)-3-(7-{[(2R)-7-hydroxy-2-methyl-2,3-dihydropyrido[2,3-f][1,4]oxazepin-4(5H)-yl]methyl}-1-benzothiophen-5-yl)propanoic acid] had an IC50 in test [1] of 30 to 300 nM. Further, the fold induction at 0.4 µM in test [2] was greater than 5.
On the same counts, the results for `CC[C@@H]1CN(Cc2cc([C@H](CC(=O)O)c3cc(C)c4c(nnn4C)c3C)cc3ccsc23)Cc2nc(O)ccc2O1` [Example 17, (3S)-3-(7-{[(2R)-2-Ethyl-7-hydroxy-2,3-dihydropyrido[2,3-f][1,4]oxazepin-4(5H)-yl]methyl}-1-benzothiophen-5-yl)-3-(1,4,7-trimethyl-1H-benzotriazol-5-yl)propanoic acid] are 30 to 300 nM and greater than 5.
`CC[C@@H]1CN(Cc2cc([C@@H](CC(=O)O)c3cc(C)c4c(nnn4C)c3C)cc3ccsc23)Cc2nc(O)ccc2O1` [Example 18, (3R)-3-(7-{[(2R)-2-Ethyl-7-hydroxy-2,3-dihydropyrido[2,3-f][1,4]oxazepin-4(5H)-yl]methyl}-1-benzothiophen-5-yl)-3-(1,4,7-trimethyl-1H-benzotriazol-5-yl)propanoic acid] returned an IC50 in test [1] of 30 to 300 nM. The fold induction at 0.4 µM in test [2] was greater than 5.
Turning to `CC[C@@H]1CN(Cc2cc([C@@H](CC(=O)O)c3ccc4c(nnn4CC(C)(C)O)c3C)cc3ccsc23)Cc2nc(O)ccc2O1` [Example 19, (3R)-3-(7-{[(2R)-2-Ethyl-7-hydroxy-2,3-dihydropyrido[2,3-f][1,4]oxazepin-4(5H)-yl]methyl}-1-benzothiophen-5-yl)-3-[1-(2-hydroxy-2-methylpropyl)-4-methyl-1H-benzotriazol-5-yl]propanoic acid], in test [1], the IC50 fell in the range of 30 to 300 nM. In test [2], the fold induction at 0.4 µM was in the range of 3 to 5.
For `CC[C@@H]1CN(Cc2cc([C@H](CC(=O)O)c3ccc4c(nnn4CC(C)(C)O)c3C)cc3ccsc23)Cc2nc(O)ccc2O1` [Example 20, (3S)-3-(7-{[(2R)-2-Ethyl-7-hydroxy-2,3-dihydropyrido[2,3-f][1,4]oxazepin-4(5H)-yl]methyl}-1-benzothiophen-5-yl)-3-[1-(2-hydroxy-2-methylpropyl)-4-methyl-1H-benzotriazol-5-yl]propanoic acid] the same measures were 10 to 30 nM and 3 to 5.
